Ki data for 85 compounds are collected here from the Kinase Knowledgebase extract (Sharma et al. 2016).

The structures appear in SMILES notation.

The target of the assay is PIK3CG (human) (UniProt P48736). Description: Inhibition of PIK3CG Kinase Activity.
Chain of PIK3CG (human) (P48736 whole entry, looked up): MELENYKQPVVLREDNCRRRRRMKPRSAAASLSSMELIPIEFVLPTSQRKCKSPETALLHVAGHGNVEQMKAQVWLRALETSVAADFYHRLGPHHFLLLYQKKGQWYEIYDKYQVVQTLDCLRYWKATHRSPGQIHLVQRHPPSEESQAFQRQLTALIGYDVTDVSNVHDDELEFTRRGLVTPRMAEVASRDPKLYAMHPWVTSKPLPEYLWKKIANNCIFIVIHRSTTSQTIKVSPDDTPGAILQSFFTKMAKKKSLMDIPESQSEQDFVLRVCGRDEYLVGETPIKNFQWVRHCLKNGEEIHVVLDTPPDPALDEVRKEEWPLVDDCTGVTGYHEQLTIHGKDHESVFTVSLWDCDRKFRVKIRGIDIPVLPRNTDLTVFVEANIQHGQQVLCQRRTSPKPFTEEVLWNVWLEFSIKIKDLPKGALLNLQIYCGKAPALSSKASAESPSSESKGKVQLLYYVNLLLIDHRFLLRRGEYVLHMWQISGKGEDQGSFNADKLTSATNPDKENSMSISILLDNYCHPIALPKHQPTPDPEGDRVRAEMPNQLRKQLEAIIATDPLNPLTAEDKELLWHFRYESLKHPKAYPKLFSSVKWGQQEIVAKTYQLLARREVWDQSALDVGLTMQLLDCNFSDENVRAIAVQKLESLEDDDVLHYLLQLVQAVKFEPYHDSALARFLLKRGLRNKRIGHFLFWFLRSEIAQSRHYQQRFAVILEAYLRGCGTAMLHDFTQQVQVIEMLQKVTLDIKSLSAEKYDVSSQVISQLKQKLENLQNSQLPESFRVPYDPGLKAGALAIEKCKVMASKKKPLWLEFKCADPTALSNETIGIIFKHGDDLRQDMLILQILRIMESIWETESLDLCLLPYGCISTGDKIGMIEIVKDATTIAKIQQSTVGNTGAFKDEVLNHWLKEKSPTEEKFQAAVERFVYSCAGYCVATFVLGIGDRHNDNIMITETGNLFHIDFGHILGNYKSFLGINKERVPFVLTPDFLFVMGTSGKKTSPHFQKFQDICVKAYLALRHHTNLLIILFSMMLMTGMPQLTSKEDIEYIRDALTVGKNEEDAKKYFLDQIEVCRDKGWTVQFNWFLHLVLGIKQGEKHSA
By Ki is commonly meant a dissociation constant, usually derived from enzyme kinetics or from competition with a known ligand. Regarding `COc1cc(-c2cc(C)c3c(n2)C(O)N(c2nc(C)cs2)C3=O)cnc1OC` (stereo not given), the Ki is less than 100 nM. The result for `COc1cc(-c2ccc3c(n2)[C@H](C)N(c2ccn(C[C@@H](C)O)n2)C3=O)cnc1OC` reads less than 100 nM. With `C=C(F)Cn1cc(N2Cc3nc(-c4cnc(OC)c(OC)c4)ccc3C2=O)cn1`, the Ki was less than 100 nM. `COCn1cc(N2Cc3nc(-c4cnc(OC)c(OC)c4)ccc3C2=O)cn1`: the Ki was less than 100 nM. In turn, `CCn1ccc(N2C(=O)c3c(C)cc(-c4cncc(OC(F)F)c4)nc3[C@H]2C)n1` came in with a Ki of less than 100 nM. The compound `Cc1cc(-c2cncc(N)c2)nc2c1C(=O)N(c1cnn(CC(F)(F)F)c1)C2(C)C` gave a Ki of less than 100 nM. Consider `COc1ncc(-c2cc(C)c3c(c2)C(C)N(c2cnn(CC(F)(F)F)c2)C3=O)cc1OC(F)F` (stereo not given), for which the Ki is less than 100 nM. Then `COc1cc(-c2ccc3c(n2)CN(c2cnn(CC(N)=O)c2)C3=O)cnc1OC`, with less than 100 nM; and `CCOc1cc(-c2ccc3c(n2)CN(c2cnn(CC#N)c2)C3=O)cnc1OCC`, with less than 100 nM; and `Cc1cc(-c2cnc(C)c(OCC(F)F)c2)nc2c1C(=O)N(c1cnn(CC(F)F)c1)C2(C)C`, with less than 100 nM.

For `COc1cncc(-c2cc(C)c3c(n2)CN(c2ccn(CC4CCCO4)n2)C3=O)c1` (stereo not given), the Ki was less than 100 nM. The result for `COc1cc(-c2ccc3c(n2)[C@H](C)N(c2cn[nH]c2)C3=O)cnc1OC` reads less than 100 nM. The result for `COc1cncc(-c2cc(C)c3c(n2)CN(c2ccn(CC(F)(F)F)n2)C3=O)c1` reads less than 100 nM; that for `COc1ncc(-c2cc(C)c3c(c2)C(C)N(c2cnn(CC(F)(F)F)c2)C3=O)cc1F` (stereo not given), less than 100 nM. The result for `COc1cc(-c2cc(C)c3c(n2)CN(c2ccc(OCCC(F)(F)F)nc2)C3=O)cnc1OC` reads less than 100 nM. `COc1cc(-c2cc(C)c3c(n2)CN(c2nc(C)cs2)C3=O)cnc1OC` showed a Ki of less than 100 nM. Then `Cc1cc(-c2cncc(OCC(F)(F)F)c2)nc2c1C(=O)N(c1cnn(CC(F)F)c1)C2`, with less than 100 nM. `COc1cc(-c2ccc3c(n2)CN(c2cnn(Cc4ccccn4)c2)C3=O)cnc1OC`: the Ki is less than 100 nM. As for `COc1cncc(-c2cc(C)c3c(n2)C2(CCNCC2)N(c2cnn(CC(F)(F)F)c2)C3=O)c1`, the Ki lay in the range of 100 to 490 nM. The result for `COc1cc(-c2ccc3c(c2)CN(c2cccc(Cn4cncn4)c2)C3=O)cnc1OC` reads less than 100 nM. Then `COc1cc(-c2ccc3c(n2)C(C)N(c2cn[nH]c2)C3=O)cnc1OC` (stereo not given), with less than 100 nM; and `CCn1ccc(N2C(=O)c3c(C)cc(-c4cncc(OC)c4)nc3[C@@H]2C)n1`, with less than 100 nM; and `COCc1cc(N2Cc3nc(-c4cnc(OC)c(OC)c4)ccc3C2=O)nn1C[C@H](C)O`, with less than 100 nM.

Consider `COc1cc(-c2ccc3c(n2)CN(c2cnn(Cc4cscn4)c2)C3=O)cnc1OC`, for which the Ki was less than 100 nM. The result for `CCOc1ncc(-c2cc(C)c3c(n2)CN(c2cn(CC(F)(F)F)cn2)C3=O)cc1OC` reads less than 100 nM; that for `COc1cc(-c2cc(C)c3c(n2)CN(c2cnn(C(C)(C)C#N)c2)C3=O)cnc1OC`, less than 100 nM; that for `COc1cc(-c2ccc3c(n2)CN(c2ccc(CN4CCOCC4)nc2)C3=O)cnc1OC`, 100 to 490 nM.

Compound `CCn1cc(N2C(=O)c3ccc(-c4cnc(OC)c(OC)c4)nc3[C@@H]2C)cn1` had a Ki of less than 100 nM. Then `COc1cncc(-c2cc(C)c3c(n2)[C@H](C)N(c2ccn(C)n2)C3=O)c1`, with less than 100 nM.

With `CCOC(=O)c1cncc(N2Cc3nc(-c4cnc(OC)c(OC)c4)ccc3C2=O)c1`, the Ki lay in the range of 100 to 490 nM. Then `COc1cc(-c2ccc3c(n2)[C@H](C)N(c2cc[nH]n2)C3=O)cnc1OC`, with less than 100 nM; and `COc1cc(-c2cc3c(c(C)n2)C(=O)N(c2cnn(CC(F)(F)F)c2)C3)cnc1OC`, with less than 100 nM; and `CCOc1ncc(-c2ccc3c(n2)CN(c2cnn(CC#N)c2)C3=O)cc1OC`, with less than 100 nM. As for `COc1cc(-c2ccc3c(n2)CN(c2ccc(N4CCC(N(C)C)C4)nc2)C3=O)cnc1OC` (stereo not given), the Ki was less than 100 nM. In the case of `CCOc1cncc(-c2cc(C)c3c(n2)C2(CCOC2)N(c2cnn(CC(F)(F)F)c2)C3=O)c1` (stereo not given), the Ki was less than 100 nM. Then `COc1cc(-c2cc(C)c3c(n2)C(C)(C)N(c2cnn(CC(F)(F)F)c2)C3=O)cnc1F`, with less than 100 nM; and `COc1cc(-c2ccc3c(n2)C(N2CC[C@@H](F)C2)N(c2cnn(CC(F)(F)F)c2)C3=O)cnc1OC` (stereo not given in full), with less than 100 nM. For `COc1cc(-c2cc(C)c3c(n2)[C@H](C)N(c2cnn(CC(F)(F)F)c2)C3=O)cnc1C`, the Ki was less than 100 nM.

With `Cc1cc(-c2cnc3ccccc3c2)nc2c1C(=O)N(c1cnn(CC(F)(F)F)c1)C2`, the Ki was less than 100 nM. `COc1cncc(-c2cc(C)c3c(n2)C(C)(C)N(c2cnn(CC(F)F)c2)C3=O)c1` yielded a Ki of less than 100 nM.

Compound `COCCOc1ncc(-c2cc(C)c3c(n2)[C@H](C)N(c2ccn(C)n2)C3=O)cc1OC` displayed a Ki of less than 100 nM. The result for `Cc1cc(-c2cncc(OCC(F)F)c2)nc2c1C(=O)N(c1cnn(CC(F)(F)F)c1)C2O` (stereo not given) reads less than 100 nM; that for `COc1cc(-c2cc(C)c3c(n2)[C@](C)(OC)N(c2cnn(CC(F)(F)F)c2)C3=O)cnc1OC`, less than 100 nM. The result for `COc1ccc(-c2cc(C)c3c(n2)CN(c2cnn(CC(F)(F)F)c2)C3=O)cn1` reads less than 100 nM.

Turning to `Cc1cc(-c2cncc(OC(F)F)c2)nc2c1C(=O)N(c1cncc(CC#N)c1)C2`, the Ki was less than 100 nM. Take `COc1cncc(-c2cc(C)c3c(n2)[C@H](C)N(c2cn[nH]c2)C3=O)c1`: the Ki is less than 100 nM. Then `COCCOCCOc1cc(-c2cc(C)c3c(n2)CN(c2cnn(CC(F)(F)F)c2)C3=O)cnc1OC`, with less than 100 nM; and `COc1cc(-c2cc(C)c3c(n2)CN(c2ccc(OCC(F)F)nc2)C3=O)cnc1OC`, with less than 100 nM; and `COc1cc(-c2ccc3c(n2)CN(c2cnn(CC(O)CF)c2)C3=O)cnc1OC` (stereo not given), with less than 100 nM.

`Cc1cc(-c2cncc(C(=O)N(C)C)c2)nc2c1C(=O)N(c1cnn(CC(F)(F)F)c1)C2(C)C` registered a Ki of 100 to 490 nM.

`COc1cc(-c2ccc3c(n2)CN(c2ccc(OCC4OCCO4)nc2)C3=O)cnc1OC` displayed a Ki of less than 100 nM. `COCCOCCOc1ncc(-c2cc(C)c3c(n2)CN(c2cnn(C)c2)C3=O)cc1OC`: the Ki is 100 to 490 nM. For `CCNC(=O)c1cc(-c2cc(C)c3c(n2)C2(COC2)N(c2cnn(CC(F)(F)F)c2)C3=O)cnc1C`, the Ki is less than 100 nM. The result for `COc1ncc(-c2cc(C)c3c(n2)CN(c2cnn(C(C)(C)C#N)c2)C3=O)cn1` reads less than 100 nM; that for `CCCn1nc(N2Cc3nc(-c4cnc(OC)c(OC)c4)cc(C)c3C2=O)cc1COC`, less than 100 nM.

In the case of `COc1cncc(-c2cc(C)c3c(n2)CN(c2cnn(C(C)(C)C#N)c2)C3=O)c1`, the Ki is less than 100 nM. Then `COc1cc(-c2ccc3c(n2)CN(c2cnn(C(C)C)c2)C3=O)cnc1OC`, with less than 100 nM; and `COc1cc(OC)c(-c2cc(C)c3c(n2)CN(c2cnn(CC(F)(F)F)c2)C3=O)cn1`, with less than 100 nM. Then `COc1cncc(-c2cc(C)c3c(n2)[C@@H](OC)N(c2cnn(CC(F)(F)F)c2)C3=O)c1`, with less than 100 nM; and `COC(=O)Cc1cncc(N2Cc3nc(-c4cnc(OC)c(OC)c4)cc(C)c3C2=O)c1`, with less than 100 nM. Then `C#CCNC(=O)c1cc(-c2cc(C)c3c(n2)C(C)(C)N(c2cnn(CC(F)(F)F)c2)C3=O)cnc1OC`, with less than 100 nM; and `COc1cc(-c2cc(C)c3c(n2)C(OC(C)C)N(c2cnn(CC(F)(F)F)c2)C3=O)cnc1OC` (stereo not given), with less than 100 nM; and `CCC1c2nc(-c3cnc(OC)c(OC)c3)ccc2C(=O)N1c1cnn(CC(F)(F)F)c1` (stereo not given), with less than 100 nM. In the case of `Cc1cc(-c2cncc(OC(F)F)c2)nc2c1C(=O)N(c1cnn(CC(F)(F)F)c1)C2C` (stereo not given), the Ki is less than 100 nM. Then `COc1cc(OC)cc(-c2cc(C)c3c(n2)CN(c2cnn(CC#N)c2)C3=O)c1`, with less than 100 nM. Then `Cc1cc(-c2cncc(OC(C)C)c2)nc2c1C(=O)N(c1cnn(CC(F)(F)F)c1)C2`, with less than 100 nM.

Compound `COc1ncc(-c2cc(C)c3c(n2)CN(c2cnn(C(C)(C)C#N)c2)C3=O)cc1OC(C)C` yielded a Ki of less than 100 nM. With `CCCCOCCOc1cc(-c2cc(C)c3c(n2)CN(c2cnn(CC(F)(F)F)c2)C3=O)cnc1OC`, the Ki is less than 100 nM. Then `COc1cc(-c2cc3c(c(C)n2)C(=O)N(c2cnn(CC(F)(F)F)c2)C3C)cnc1OC` (stereo not given), with less than 100 nM; and `COCCOc1ccc(N2Cc3nc(-c4cnc(OC)c(OC)c4)ccc3C2=O)cn1`, with less than 100 nM. The result for `CCOCCCOc1ncc(-c2cc(C)c3c(n2)CN(c2cnn(CC(F)(F)F)c2)C3=O)cc1OC` reads 100 to 490 nM. The result for `COc1ncc(-c2cc(C)c3c(n2)C(C)N(c2cnn(CC(F)(F)F)c2)C3=O)cc1C(=O)NC(C)C` (stereo not given) reads less than 100 nM. As to `COc1cc(-c2ccc3c(n2)C(C)N(c2ccn(CC(C)(C)O)n2)C3=O)cnc1OC` (stereo not given), the Ki was less than 100 nM.

`COc1cncc(-c2cc(C)c3c(n2)C(C)N(c2cnccn2)C3=O)c1` (stereo not given): the Ki is 100 to 490 nM. The result for `CCOc1cncc(-c2cc(C)c3c(n2)[C@](C)(OC)N(c2cnn(CC(F)(F)F)c2)C3=O)c1` reads less than 100 nM.

Take `COc1cc(-c2cc(C)c3c(n2)CN(c2ccc(C(F)(F)F)nc2)C3=O)cnc1OC`: the Ki is less than 100 nM. Then `CCn1ccc(N2Cc3nc(-c4cnc(OC)c(OCC5CC5)c4)cc(C)c3C2=O)n1`, with less than 100 nM.

The compound `CCn1ccc(N2C(=O)c3c(C)cc(-c4cncc(OCC(F)F)c4)nc3[C@@H]2C)n1` came in with a Ki of 100 to 490 nM. Then `COc1cncc(-c2cc(C)c3c(n2)C(C)(C)N(c2cnn(CC(F)(F)F)c2)C3=O)c1`, with less than 100 nM.

Compound `Cc1ncc(-c2ccc3c(n2)CN(c2cnn(CC(F)(F)F)c2)C3=O)cc1OCC(F)F` yielded a Ki of 100 to 490 nM.

`COc1cc(-c2ccc3c(c2)CN(c2ccnc(C)c2)C3=O)cnc1OC` registered a Ki of 100 to 490 nM. The result for `CCn1cc(N2Cc3cc(-c4ccc(OC)c(OC)n4)ccc3C2=O)cn1` reads 100 to 490 nM.

As to `Cc1cc(-c2cncc(C(=O)NC3CCOC3)c2)nc2c1C(=O)N(c1cnn(CC(F)(F)F)c1)C2(C)C` (stereo not given), the Ki is less than 100 nM. For `COCCOCCOc1ncc(-c2cc(C)c3c(c2)CN(c2cnn(CC(F)(F)F)c2)C3=O)cc1OC`, the Ki lay in the range of 100 to 490 nM. Then `Cc1cc(-c2cncc(OCC(F)F)c2)nc2c1C(=O)N(c1cnn(CC(F)F)c1)C2`, with less than 100 nM.
